# From patent US20180028516A1, “METHODS AND DEVICES FOR THE TREATMENT OF OCULAR DISEASES IN HUMAN SUBJECTS” (CLEARSIDE BIOMEDICAL, INC., priority 2012, published 2018)
# How the values were obtained:
# [1] = Ocular and systemic pharmacokinetics of TA, SCS vs IVT (Example 10); type: in vivo, New Zealand White rabbit
# Procedure: In this study, the ocular and systemic pharmacokinetics (PK) of triar cinolone acetonide (TA) in the New Zealand White rabbit following intravitreal […] injection or administration into the suprachoroidal space (SCS) using a hollow rnicroneedle were evaluated.
# On Day 0, male rabbits (5 per group) received a single bilateral administration of 4 mg TA (100 μL Triesence triamcinolone formulationAlcon Labs) via SCS injection using a 33 g 750 μm microneedle or an IVT injection using a standard 30 g needle. The study design is shown below in Table 4.
# Clinical observations, body weights, and intraocular pressure (IOP) were assessed up to 13 weeks post-dose. Plasma and ocular matrixes (aqueous humor (AH), lens, iris/ciliary body (ICB), vitreous humor (VH), sclera/choroid (SC), and retina) were sampled on Days 1, 14, 28, 56, and 91. Plasma (LLOQ 0.5 ng/mL) and ocular matrixes (LLOQ 2 -15 ng/mL) were analyzed using LC-MS/MS, and resulting data were assessed for noncompartmentat PK parameters.
# [2] = system: LPS-induced acute posterior uveitis; assay: Aqueous and vitreous humor inflammatory cell counts and protein concentration (Example 13); type: in vivo, domestic weanling pigs
# Procedure: Pigs were euthanized on study day 3 after clinical scoring, OCT, ERG, and wide-field ocular fundus photography was completed. After euthanasia with an overdose of intravenous barbiturate, both eyes were removed, Aqueous humor (All) was aspirated and a 1 mL sample of vitreous humor (VH) was collected from each eye immediately after euthanasia. The globe was then fixed in Davidson's solution for 24 hours, followed by alcohol. Central, saggital sections of each globe, including the optic nerve, were stained with hematoxylin and eosin and examined by light microscopy. Two pathology-trained observers, masked to the study groups, graded degree of inflammatory infiltrate of the ocular anterior and posterior segments. The grading scale for the anterior and posterior ocular segment used was as follows: 0=no evidence of cellular infiltrate; 1=a few cells infiltrated (mild)−focal; 2=a few cells infiltrated (mild)−diffuse; 3=moderate number of cells infiltrated; and 4=high amount of cellular infiltrate.
# After aspiration from the eyes, AH and VH were immediately placed on ice, transferred to the laboratory, then frozen at −80° C. until processing. Samples where thawed at room temperature, vortexed, and total cell counts were performed with a hemocytometer. Total protein concentration was measured using the […] (Pierce BCA Protein Assay Kit, Thermo Scientific Pierce, Rockford, Ill.).
# Differences were considered significant at P<0.05.
# [3] = parameters: species or system New Zealand White rabbit; settings: rabbit, in vivo
# Procedure: In this study, the ocular tolerability and toxicokinetics of suprachoroidal administration of Ting triamcinolone acetonide (TA) using microneedle was determined, in the New Zealand White rabbit as an animal model.
# On Day 0, New Zealand White (NZW) rabbits (4/sex/group/terminal time point, 48 total) were administered a single bilateral suprachoroidal injection of 100 μL of 4 ma TA (40 mg/mL) or vehicle, using a 33 g 750 μm microneedle. Clinical Observations, body weights, food consumption, slit lamp biomicroscopy with McDonald-Shadduck scoring, indirect ophthalmoscopy, intraocular pressure assessment (IOP), central corneal thickness (CCT), electroretinography (ERG), serum chemistry and hematology, and systemic exposure were assessed up to 13 weeks post-dose. Animals were sacrificed on Day 1 or Week 13 and were evaluated for macroscopic observations at necropsy and ocular histopathology. Four animals/sex were given an additional suprachoroidal administration on Day 90, and will be followed for an additional 13 weeks.
compound,measurement,setting,value
"CC1(C)O[C@@H]2C[C@H]3[C@@H]4CCC5=CC(=O)C=C[C@]5(C)[C@@]4(F)[C@@H](O)C[C@]3(C)[C@]2(C(=O)CO)O1 [TA, triamcinolone acetonide]","increase of AUC in VH, IVT TA compared with SCS TA",[1]; 4 mg TA,52 fold
same,"increase of AUC in aqueous Humor, IVT TA compared with SCS TA",[1]; 4 mg TA,63 fold
same,"increase of AUC in iris/ciliary body, IVT TA compared with SCS TA",[1]; 4 mg TA,44 fold
same,"increase of AUC in lens, IVT TA compared with SCS TA",[1]; 4 mg TA,690 fold
same,"increase of AUC in the sclera/choroid, SCS TA compared with IVT TA",[1]; 4 mg TA,11 fold
same,"increase of Cmax in VH, IVT TA compared with SCS TA",[1]; 4 mg TA,4 fold
same,"increase of Cmax in aqueous Humor, IVT TA compared with SCS TA",[1]; 4 mg TA,250 fold
same,"increase of Cmax in iris/ciliary body, IVT TA compared with SCS TA",[1]; 4 mg TA,24 fold
same,"increase of Cmax in lens, IVT TA compared with SCS TA",[1]; 4 mg TA,290 fold
same,"increase of Cmax in the sclera/choroid, SCS TA compared with IVT TA",[1]; 4 mg TA,10 fold
same,AUC0-t,"[1]; Aqueous Humor, IVT 4 mg TA","8,500 ng · day/mL"
same,Clast,"[1]; Aqueous Humor, IVT 4 mg TA",42 ng/mL
same,Cmax,"[1]; Aqueous Humor, IVT 4 mg TA",269 ng/mL
same,Tlast,"[1]; Aqueous Humor, IVT 4 mg TA",91 days
same,Tmax,"[1]; Aqueous Humor, IVT 4 mg TA",336 h
same,Clast,"[1]; Aqueous Humor, SCS 4 mg TA",16 ng/mL
same,Cmax,"[1]; Aqueous Humor, SCS 4 mg TA",16 ng/mL
same,Tlast,"[1]; Aqueous Humor, SCS 4 mg TA",28 days
same,AUC0-t,"[1]; Iris/Ciliary body, IVT 4 mg TA","40,900,000 ng · day/mL"
same,Clast,"[1]; Iris/Ciliary body, IVT 4 mg TA","463,000 ng/mL"
same,Cmax,"[1]; Iris/Ciliary body, IVT 4 mg TA","1,260,000 ng/mL"
same,Tlast,"[1]; Iris/Ciliary body, IVT 4 mg TA",91 days
same,Tmax,"[1]; Iris/Ciliary body, IVT 4 mg TA",24 h
same,AUC0-t,"[1]; Iris/Ciliary body, SCS 4 mg TA","1,190,000 ng · day/mL"
same,AUC0-∞,"[1]; Iris/Ciliary body, SCS 4 mg TA","1,190,000 ng · day/mL"
same,Clast,"[1]; Iris/Ciliary body, SCS 4 mg TA",247 ng/mL
same,Cmax,"[1]; Iris/Ciliary body, SCS 4 mg TA","50,200 ng/mL"
same,T1/2,"[1]; Iris/Ciliary body, SCS 4 mg TA",220 h
same,Tlast,"[1]; Iris/Ciliary body, SCS 4 mg TA",91 days
same,Tmax,"[1]; Iris/Ciliary body, SCS 4 mg TA",24 h
same,AUC0-t,"[1]; Lens, IVT 4 mg TA","12,600,000 ng · day/mL"
same,Clast,"[1]; Lens, IVT 4 mg TA","40,300 ng/mL"
same,Cmax,"[1]; Lens, IVT 4 mg TA","540,000 ng/mL"
same,Tlast,"[1]; Lens, IVT 4 mg TA",91 days
same,Tmax,"[1]; Lens, IVT 4 mg TA",336 h
same,AUC0-t,"[1]; Lens, SCS 4 mg TA","27,400 ng · day/mL"
same,Clast,"[1]; Lens, SCS 4 mg TA",9 ng/mL
same,Cmax,"[1]; Lens, SCS 4 mg TA","1,870 ng/mL"
same,Tlast,"[1]; Lens, SCS 4 mg TA",91 days
same,Tmax,"[1]; Lens, SCS 4 mg TA",24 h
same,AUC0-t,"[1]; Retina, IVT 4 mg TA","25,100,000 ng · day/mL"
same,AUC0-∞,"[1]; Retina, IVT 4 mg TA","26,300,000 ng · day/mL"
same,Clast,"[1]; Retina, IVT 4 mg TA","41,500 ng/mL"
same,Cmax,"[1]; Retina, IVT 4 mg TA","781,000 ng/mL"
same,T1/2,"[1]; Retina, IVT 4 mg TA",504 h
same,Tlast,"[1]; Retina, IVT 4 mg TA",91 days
same,Tmax,"[1]; Retina, IVT 4 mg TA",336 h
same,AUC0-t,"[1]; Retina, SCS 4 mg TA","24,600,000 ng · day/mL"
same,Clast,"[1]; Retina, SCS 4 mg TA","2,600 ng/mL"
same,Cmax,"[1]; Retina, SCS 4 mg TA","907,000 ng/mL"
same,Tlast,"[1]; Retina, SCS 4 mg TA",91 days
same,Tmax,"[1]; Retina, SCS 4 mg TA",24 h
same,quantifiability of TA in ocular matrixes,"[1]; SCS and IVT, 4 mg TA",quantifiable in all ocular matrixes through Day 91
same,AUC0-t,"[1]; Sclera/choroid, IVT 4 mg TA","8,640,000 ng · day/mL"
same,AUC0-∞,"[1]; Sclera/choroid, IVT 4 mg TA","10,300,000 ng · day/mL"
same,Clast,"[1]; Sclera/choroid, IVT 4 mg TA","27,100 ng/mL"
same,Cmax,"[1]; Sclera/choroid, IVT 4 mg TA","235,000 ng/mL"
same,T1/2,"[1]; Sclera/choroid, IVT 4 mg TA",1030 h
same,Tlast,"[1]; Sclera/choroid, IVT 4 mg TA",91 days
same,Tmax,"[1]; Sclera/choroid, IVT 4 mg TA",336 h
same,AUC0-t,"[1]; Sclera/choroid, SCS 4 mg TA","101,000,000 ng · day/mL"
same,AUC0-∞,"[1]; Sclera/choroid, SCS 4 mg TA","101,000,000 ng · day/mL"
same,Clast,"[1]; Sclera/choroid, SCS 4 mg TA","34,000 ng/mL"
same,Cmax,"[1]; Sclera/choroid, SCS 4 mg TA","2,860,000 ng/mL"
same,T1/2,"[1]; Sclera/choroid, SCS 4 mg TA",264 h
same,Tlast,"[1]; Sclera/choroid, SCS 4 mg TA",91 days
same,Tmax,"[1]; Sclera/choroid, SCS 4 mg TA",24 h
same,AUC0-t,"[1]; Vitreous Humor, IVT 4 mg TA","77,600,000 ng · day/mL"
same,AUC0-∞,"[1]; Vitreous Humor, IVT 4 mg TA","85,500,000 ng · day/mL"
same,Clast,"[1]; Vitreous Humor, IVT 4 mg TA","218,000 ng/mL"
same,Cmax,"[1]; Vitreous Humor, IVT 4 mg TA","1,640,000 ng/mL"
same,T1/2,"[1]; Vitreous Humor, IVT 4 mg TA",600 h
same,Tlast,"[1]; Vitreous Humor, IVT 4 mg TA",91 days
same,Tmax,"[1]; Vitreous Humor, IVT 4 mg TA",24 h
same,AUC0-t,"[1]; Vitreous Humor, SCS 4 mg TA","3,460,000 ng · day/mL"
same,Clast,"[1]; Vitreous Humor, SCS 4 mg TA",10 ng/mL
same,Cmax,"[1]; Vitreous Humor, SCS 4 mg TA","287,000 ng/mL"
same,Tlast,"[1]; Vitreous Humor, SCS 4 mg TA",91 days
same,Tmax,"[1]; Vitreous Humor, SCS 4 mg TA",24 h
same,systemic exposure,"[1]; either route (IVT or SCS), 4 mg TA",minimal
same,TA peak concentration in plasma,"[1]; peaked on Day 1, both groups (SCS and IVT, 4 mg TA)",4 ng/mL
same,"Mean AH cell counts compared with Groups 1, 5 or 6",[2]; Group 3: low dose TA SCS,not significantly different
same,Mean VH cell count compared with Group 1 and Group 4,[2]; Group 3: low dose TA SCS,significantly higher
same,"Mean AH cell counts compared with Groups 1, 5 or 6",[2]; Group 4: high dose TA SCS,not significantly different
same,"mean VH cell counts compared with Group 1, the untreated control",[2]; Group 4: high dose TA SCS,not significantly different
same,"mean vitreous humor protein concentrations compared with Groups 3, 5 and 6",[2]; Group 4: high dose TA SCS,significantly lower
same,Mean AH cell counts compared with Group 1,[2]; Group 5: low dose TA IVT,significantly higher
same,Mean VH cell count compared with Group 1 and Group 4,[2]; Group 5: low dose TA IVT,significantly higher
same,Mean AH cell counts compared with Group 1,[2]; Group 6: high dose TA IVT,significantly higher
same,"mean aqueous humor protein concentration, differences among the groups",[2]; all groups,no significant differences
same,IOP change related to the injection procedure,[3],decrease
same,adverse effects related to the method of administration or 4 mg TA as assessed by histopathology,[3],no adverse effects
same,central corneal thickness (CCT),[3],slight decrease
same,mean Cmax in plasma,[3]; 4 mg,12 ng/mL
